Reference: ChEMBL document CHEMBL3991601, “The target landscape of clinical kinase drugs” (Science, 2017)
Calls of active or inactive are those of the source.

Columns and labels:
[1] = molecular target: Cyclin-dependent kinase 17 (Homo sapiens, UniProt Q00537)
[2] = molecular target: T1, Isoleucine--tRNA ligase, mitochondrial (Homo sapiens, UniProt Q9NSE4)
T1 sequence (Q9NSE4 whole entry): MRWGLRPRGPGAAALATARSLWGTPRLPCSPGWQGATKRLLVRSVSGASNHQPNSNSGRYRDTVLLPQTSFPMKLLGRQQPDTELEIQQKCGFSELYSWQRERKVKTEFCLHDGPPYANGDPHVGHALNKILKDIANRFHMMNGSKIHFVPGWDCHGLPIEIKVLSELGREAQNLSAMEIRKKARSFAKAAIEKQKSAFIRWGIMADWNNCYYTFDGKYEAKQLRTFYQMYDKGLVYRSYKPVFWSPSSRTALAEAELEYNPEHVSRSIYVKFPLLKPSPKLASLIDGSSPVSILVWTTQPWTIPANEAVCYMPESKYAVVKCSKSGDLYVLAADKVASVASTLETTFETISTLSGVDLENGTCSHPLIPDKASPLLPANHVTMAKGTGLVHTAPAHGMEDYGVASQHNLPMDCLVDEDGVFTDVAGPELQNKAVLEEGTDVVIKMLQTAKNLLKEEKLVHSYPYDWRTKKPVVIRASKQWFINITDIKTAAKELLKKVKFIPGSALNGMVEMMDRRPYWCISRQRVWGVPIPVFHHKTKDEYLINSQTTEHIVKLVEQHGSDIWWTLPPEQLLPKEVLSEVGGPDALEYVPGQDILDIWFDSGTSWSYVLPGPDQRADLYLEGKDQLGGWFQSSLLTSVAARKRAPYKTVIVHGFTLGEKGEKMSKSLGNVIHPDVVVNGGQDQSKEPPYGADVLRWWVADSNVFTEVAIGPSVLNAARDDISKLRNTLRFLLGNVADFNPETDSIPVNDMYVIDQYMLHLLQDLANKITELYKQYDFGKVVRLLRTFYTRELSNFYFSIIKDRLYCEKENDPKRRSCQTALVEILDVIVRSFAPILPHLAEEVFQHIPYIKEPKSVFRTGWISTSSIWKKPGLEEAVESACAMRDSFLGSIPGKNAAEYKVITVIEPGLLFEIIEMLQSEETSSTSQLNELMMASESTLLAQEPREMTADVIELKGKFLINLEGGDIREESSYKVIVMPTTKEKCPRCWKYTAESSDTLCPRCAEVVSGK

[3] = molecular target: Phosphatidylethanolamine-binding protein 1 (Homo sapiens, UniProt P30086)
Chain of Phosphatidylethanolamine-binding protein 1 (P30086 whole entry): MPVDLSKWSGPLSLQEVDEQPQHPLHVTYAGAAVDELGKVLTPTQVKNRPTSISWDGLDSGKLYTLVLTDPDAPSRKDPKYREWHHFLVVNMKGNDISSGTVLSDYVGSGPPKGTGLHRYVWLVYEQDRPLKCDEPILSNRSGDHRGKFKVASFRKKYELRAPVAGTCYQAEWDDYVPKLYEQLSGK

[4] = molecular target: MAP kinase-activated protein kinase 3 (Homo sapiens, UniProt Q16644)
Chain of MAP kinase-activated protein kinase 3 (Q16644 whole entry): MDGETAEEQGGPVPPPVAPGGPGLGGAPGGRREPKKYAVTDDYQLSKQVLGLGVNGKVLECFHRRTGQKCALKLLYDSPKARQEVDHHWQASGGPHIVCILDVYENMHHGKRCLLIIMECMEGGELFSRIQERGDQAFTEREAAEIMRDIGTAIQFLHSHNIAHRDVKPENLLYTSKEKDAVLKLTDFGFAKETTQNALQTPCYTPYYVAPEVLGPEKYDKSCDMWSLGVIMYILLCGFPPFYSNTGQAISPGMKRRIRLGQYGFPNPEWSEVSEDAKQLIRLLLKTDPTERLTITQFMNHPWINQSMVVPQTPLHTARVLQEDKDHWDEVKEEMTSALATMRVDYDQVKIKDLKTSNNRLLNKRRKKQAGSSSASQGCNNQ

[5] = molecular target: DNA topoisomerase 2-alpha (Homo sapiens, UniProt P11388)
[6] = molecular target: Epidermal growth factor receptor (Homo sapiens, UniProt P00533)
Chain of Epidermal growth factor receptor (P00533 whole entry, the tested form may be a part): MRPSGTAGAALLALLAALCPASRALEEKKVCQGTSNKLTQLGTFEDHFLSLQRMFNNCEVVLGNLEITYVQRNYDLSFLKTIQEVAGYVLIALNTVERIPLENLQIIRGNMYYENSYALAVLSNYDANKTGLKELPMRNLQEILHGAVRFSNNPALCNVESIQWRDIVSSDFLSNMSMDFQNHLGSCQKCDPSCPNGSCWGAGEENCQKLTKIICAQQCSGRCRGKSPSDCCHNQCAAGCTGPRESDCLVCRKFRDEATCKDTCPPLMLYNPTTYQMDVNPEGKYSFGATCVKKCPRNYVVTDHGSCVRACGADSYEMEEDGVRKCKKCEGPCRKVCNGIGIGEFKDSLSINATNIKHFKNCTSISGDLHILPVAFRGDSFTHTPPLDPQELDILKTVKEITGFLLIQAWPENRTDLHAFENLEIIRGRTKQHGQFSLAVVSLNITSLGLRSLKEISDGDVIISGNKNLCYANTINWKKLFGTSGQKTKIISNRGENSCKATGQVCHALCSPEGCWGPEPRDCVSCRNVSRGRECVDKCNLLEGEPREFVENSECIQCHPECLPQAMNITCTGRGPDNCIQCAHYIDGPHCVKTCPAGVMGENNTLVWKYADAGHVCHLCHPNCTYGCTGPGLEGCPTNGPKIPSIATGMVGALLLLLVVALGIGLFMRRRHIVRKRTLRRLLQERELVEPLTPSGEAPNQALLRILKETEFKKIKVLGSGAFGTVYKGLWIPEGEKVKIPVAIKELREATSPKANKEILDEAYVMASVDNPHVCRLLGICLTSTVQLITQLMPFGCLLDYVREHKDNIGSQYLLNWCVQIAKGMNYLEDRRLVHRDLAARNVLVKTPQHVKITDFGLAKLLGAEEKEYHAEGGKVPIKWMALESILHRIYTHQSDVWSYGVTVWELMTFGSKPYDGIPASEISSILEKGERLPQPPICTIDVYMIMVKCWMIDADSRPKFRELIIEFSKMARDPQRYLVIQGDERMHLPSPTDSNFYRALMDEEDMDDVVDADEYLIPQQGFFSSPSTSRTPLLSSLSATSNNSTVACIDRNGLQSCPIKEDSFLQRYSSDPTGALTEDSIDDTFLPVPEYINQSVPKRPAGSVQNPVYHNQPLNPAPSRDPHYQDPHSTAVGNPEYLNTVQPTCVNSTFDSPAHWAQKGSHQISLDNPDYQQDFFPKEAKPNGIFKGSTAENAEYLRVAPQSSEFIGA

[7] = molecular target: Uncharacterized aarF domain-containing protein kinase 5 (Homo sapiens, UniProt Q3MIX3)
Chain of Uncharacterized aarF domain-containing protein kinase 5 (Q3MIX3 whole entry, the tested form may be a part): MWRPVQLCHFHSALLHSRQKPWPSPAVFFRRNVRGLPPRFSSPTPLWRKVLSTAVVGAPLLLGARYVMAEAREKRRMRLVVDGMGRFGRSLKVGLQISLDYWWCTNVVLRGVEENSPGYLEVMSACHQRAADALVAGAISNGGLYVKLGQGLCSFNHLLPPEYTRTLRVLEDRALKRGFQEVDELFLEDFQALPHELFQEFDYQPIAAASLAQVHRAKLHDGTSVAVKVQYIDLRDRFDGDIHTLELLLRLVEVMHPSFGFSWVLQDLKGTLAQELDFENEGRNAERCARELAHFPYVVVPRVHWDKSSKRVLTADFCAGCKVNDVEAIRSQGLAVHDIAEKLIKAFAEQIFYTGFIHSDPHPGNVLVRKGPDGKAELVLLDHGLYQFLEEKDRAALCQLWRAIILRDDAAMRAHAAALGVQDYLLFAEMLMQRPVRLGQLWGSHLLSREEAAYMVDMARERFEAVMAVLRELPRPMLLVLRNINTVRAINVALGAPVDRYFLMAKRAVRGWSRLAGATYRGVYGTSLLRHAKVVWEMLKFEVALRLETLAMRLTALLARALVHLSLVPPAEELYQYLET

[8] = molecular target: Serine/threonine-protein kinase N3 (Homo sapiens, UniProt Q6P5Z2)
[9] = molecular target: Choline-phosphate cytidylyltransferase A (Homo sapiens, UniProt P49585)
Chain of Choline-phosphate cytidylyltransferase A (P49585 whole entry): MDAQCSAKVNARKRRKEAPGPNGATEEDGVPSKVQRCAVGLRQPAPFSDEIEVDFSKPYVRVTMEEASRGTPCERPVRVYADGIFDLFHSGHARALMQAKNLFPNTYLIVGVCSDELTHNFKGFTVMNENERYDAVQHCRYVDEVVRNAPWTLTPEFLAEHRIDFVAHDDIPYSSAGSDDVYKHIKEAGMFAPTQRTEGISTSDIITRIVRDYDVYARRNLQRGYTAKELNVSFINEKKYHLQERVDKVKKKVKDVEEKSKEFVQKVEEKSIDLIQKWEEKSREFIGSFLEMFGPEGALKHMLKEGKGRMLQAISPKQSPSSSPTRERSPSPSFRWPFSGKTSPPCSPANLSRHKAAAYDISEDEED

[10] = molecular target: T2, ATP-dependent RNA helicase DHX30 (Homo sapiens, UniProt Q7L2E3)
T2 sequence (Q7L2E3 whole entry): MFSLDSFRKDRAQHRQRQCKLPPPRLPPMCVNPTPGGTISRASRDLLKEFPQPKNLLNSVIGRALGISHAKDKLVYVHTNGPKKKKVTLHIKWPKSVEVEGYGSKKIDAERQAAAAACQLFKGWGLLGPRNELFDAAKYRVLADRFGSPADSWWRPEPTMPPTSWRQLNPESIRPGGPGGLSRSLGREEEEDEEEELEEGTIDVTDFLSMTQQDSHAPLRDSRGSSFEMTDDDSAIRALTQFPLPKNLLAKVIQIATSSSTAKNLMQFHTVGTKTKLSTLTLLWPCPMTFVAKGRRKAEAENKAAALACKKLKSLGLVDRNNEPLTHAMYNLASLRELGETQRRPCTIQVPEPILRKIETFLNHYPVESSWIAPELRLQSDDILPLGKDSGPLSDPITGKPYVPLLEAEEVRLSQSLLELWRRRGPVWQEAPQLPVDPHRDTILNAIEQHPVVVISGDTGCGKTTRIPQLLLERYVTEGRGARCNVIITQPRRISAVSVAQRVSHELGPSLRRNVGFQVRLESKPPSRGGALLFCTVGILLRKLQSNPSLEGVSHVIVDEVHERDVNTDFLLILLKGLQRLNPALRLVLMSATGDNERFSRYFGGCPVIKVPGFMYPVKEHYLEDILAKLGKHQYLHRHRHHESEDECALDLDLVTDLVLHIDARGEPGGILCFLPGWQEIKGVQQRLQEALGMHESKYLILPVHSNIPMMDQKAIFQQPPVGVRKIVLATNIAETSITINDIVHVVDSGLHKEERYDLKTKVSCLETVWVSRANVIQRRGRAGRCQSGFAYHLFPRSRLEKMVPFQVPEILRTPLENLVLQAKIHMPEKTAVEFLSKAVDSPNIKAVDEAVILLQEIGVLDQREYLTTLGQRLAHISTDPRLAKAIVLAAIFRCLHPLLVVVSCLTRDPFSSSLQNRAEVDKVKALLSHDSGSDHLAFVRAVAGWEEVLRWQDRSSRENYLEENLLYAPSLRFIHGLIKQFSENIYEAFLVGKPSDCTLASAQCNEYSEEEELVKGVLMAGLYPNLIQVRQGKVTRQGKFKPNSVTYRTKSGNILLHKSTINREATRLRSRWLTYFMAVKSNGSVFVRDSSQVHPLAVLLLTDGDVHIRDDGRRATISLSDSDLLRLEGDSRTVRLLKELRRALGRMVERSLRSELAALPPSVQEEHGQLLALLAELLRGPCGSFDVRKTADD

[11] = molecular target: Serine/threonine-protein kinase pim-2 (Homo sapiens, UniProt Q9P1W9)
Chain of Serine/threonine-protein kinase pim-2 (Q9P1W9 whole entry): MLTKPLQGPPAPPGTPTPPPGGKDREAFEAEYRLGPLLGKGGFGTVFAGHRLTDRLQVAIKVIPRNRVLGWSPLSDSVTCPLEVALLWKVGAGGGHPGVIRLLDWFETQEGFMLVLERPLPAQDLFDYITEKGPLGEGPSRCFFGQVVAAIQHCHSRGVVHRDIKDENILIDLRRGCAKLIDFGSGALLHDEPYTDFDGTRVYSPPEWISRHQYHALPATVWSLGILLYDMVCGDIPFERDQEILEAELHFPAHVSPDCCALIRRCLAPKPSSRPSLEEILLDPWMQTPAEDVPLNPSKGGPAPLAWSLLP

[12] = molecular target: Protein kinase C theta type (Homo sapiens, UniProt Q04759)
[13] = molecular target: Mitogen-activated protein kinase 14 (Homo sapiens, UniProt Q16539)
Chain of Mitogen-activated protein kinase 14 (Q16539 whole entry): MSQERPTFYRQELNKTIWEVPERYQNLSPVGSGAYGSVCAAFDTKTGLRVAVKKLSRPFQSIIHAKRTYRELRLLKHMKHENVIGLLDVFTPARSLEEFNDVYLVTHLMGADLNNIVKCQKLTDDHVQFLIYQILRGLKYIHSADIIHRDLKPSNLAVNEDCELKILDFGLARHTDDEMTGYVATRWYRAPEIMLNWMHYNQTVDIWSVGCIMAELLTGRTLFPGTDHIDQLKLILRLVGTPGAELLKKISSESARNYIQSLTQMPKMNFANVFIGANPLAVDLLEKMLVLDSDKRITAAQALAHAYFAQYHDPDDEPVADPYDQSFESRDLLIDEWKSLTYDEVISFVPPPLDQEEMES

Focal adhesion kinase 1 = Focal adhesion kinase 1 (Homo sapiens, UniProt Q05397)
Chain of Focal adhesion kinase 1 (Q05397 whole entry): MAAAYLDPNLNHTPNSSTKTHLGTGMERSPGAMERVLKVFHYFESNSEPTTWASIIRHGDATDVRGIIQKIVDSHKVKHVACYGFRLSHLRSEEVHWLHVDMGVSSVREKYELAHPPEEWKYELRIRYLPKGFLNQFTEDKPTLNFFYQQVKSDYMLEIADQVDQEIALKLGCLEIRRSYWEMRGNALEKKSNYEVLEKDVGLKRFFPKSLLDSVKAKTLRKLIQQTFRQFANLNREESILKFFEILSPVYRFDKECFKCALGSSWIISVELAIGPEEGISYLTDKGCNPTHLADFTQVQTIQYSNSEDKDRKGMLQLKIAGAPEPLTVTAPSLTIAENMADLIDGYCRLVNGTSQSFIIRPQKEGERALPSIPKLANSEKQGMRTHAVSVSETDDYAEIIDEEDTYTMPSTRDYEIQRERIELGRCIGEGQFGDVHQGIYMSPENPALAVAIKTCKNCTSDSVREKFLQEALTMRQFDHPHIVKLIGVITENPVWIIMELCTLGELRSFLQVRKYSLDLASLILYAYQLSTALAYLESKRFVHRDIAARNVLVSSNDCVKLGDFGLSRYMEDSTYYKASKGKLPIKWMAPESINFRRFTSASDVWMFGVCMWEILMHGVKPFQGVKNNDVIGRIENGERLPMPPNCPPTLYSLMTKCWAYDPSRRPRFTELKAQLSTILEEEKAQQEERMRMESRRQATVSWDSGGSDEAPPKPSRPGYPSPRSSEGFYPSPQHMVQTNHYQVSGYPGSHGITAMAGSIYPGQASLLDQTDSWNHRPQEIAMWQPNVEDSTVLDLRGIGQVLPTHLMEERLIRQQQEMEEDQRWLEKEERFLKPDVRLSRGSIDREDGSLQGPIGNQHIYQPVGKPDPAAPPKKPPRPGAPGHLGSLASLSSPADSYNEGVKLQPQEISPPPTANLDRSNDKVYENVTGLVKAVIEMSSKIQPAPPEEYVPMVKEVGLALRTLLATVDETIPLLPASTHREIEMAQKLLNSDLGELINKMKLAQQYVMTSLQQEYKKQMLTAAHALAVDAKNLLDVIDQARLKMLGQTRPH

[14] = molecular target: Tyrosine-protein kinase Lck (Homo sapiens, UniProt P06239)
[15] = molecular target: Proto-oncogene tyrosine-protein kinase receptor Ret (Homo sapiens, UniProt P07949)
Note: in the data inactive means no Kd found up to 30 µM.

Chain of Cyclin-dependent kinase 17 (Q00537 whole entry): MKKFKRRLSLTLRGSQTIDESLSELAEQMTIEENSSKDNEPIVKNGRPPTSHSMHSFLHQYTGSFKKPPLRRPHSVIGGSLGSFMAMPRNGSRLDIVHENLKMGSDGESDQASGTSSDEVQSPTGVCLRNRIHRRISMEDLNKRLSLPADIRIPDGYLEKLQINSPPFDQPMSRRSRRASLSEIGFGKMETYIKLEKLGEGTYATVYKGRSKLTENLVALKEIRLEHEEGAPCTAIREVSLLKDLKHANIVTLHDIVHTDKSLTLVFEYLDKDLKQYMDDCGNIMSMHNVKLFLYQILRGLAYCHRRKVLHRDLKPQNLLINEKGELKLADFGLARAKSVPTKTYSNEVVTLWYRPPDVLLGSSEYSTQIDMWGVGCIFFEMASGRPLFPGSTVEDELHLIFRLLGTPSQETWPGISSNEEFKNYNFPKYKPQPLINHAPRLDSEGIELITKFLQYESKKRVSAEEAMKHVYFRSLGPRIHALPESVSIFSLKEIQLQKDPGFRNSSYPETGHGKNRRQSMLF

| Kd [1] | Kd [2] | Kd [3] | Kd [4] | Kd [5] | Kd [6] | Kd [7] | Kd [8] | Kd [9] | Kd [10] | Kd [11] | Kd [12] | Kd [13] | Kd (Focal adhesion kinase 1) | Kd [14] | Kd [15] | Compound |
| --- | --- | --- | --- | --- | --- | --- | --- | --- | --- | --- | --- | --- | --- | --- | --- | --- |
| > 30 µM (inactive) | > 30 µM (inactive) | > 30 µM (inactive) | > 30 µM (inactive) | > 30 µM (inactive) | > 30 µM (inactive) | > 30 µM (inactive) | > 30 µM (inactive) | > 30 µM (inactive) |  |  |  |  |  |  |  | Cn1c(=O)n(-c2ccc(C(C)(C)C#N)cc2)c2c3cc(-c4cnc5ccccc5c4)ccc3ncc21 [DACTOLISIB] |
|  | > 30 µM (inactive) | > 30 µM (inactive) |  | > 30 µM (inactive) |  | > 30 µM (inactive) | > 30 µM (inactive) | > 30 µM (inactive) | > 30 µM (inactive) |  |  |  |  |  |  | COc1cc2c(Oc3ccc4[nH]c(C)cc4c3F)ncnc2cc1OCCCN1CCCC1 [CEDIRANIB] |
|  |  | > 30 µM (inactive) | > 30 µM (inactive) | > 30 µM (inactive) |  | > 30 µM (inactive) | > 30 µM (inactive) | > 30 µM (inactive) | > 30 µM (inactive) |  |  |  |  |  |  | CN(C)C/C=C/C(=O)Nc1cc2c(Nc3ccc(F)c(Cl)c3)ncnc2cc1O[C@H]1CCOC1 [AFATINIB] |
|  | > 30 µM (inactive) |  | > 30 µM (inactive) | > 30 µM (inactive) | > 30 µM (inactive) | > 30 µM (inactive) | > 30 µM (inactive) | > 30 µM (inactive) |  |  | > 30 µM (inactive) | > 30 µM (inactive) | > 30 µM (inactive) | > 30 µM (inactive) | > 30 µM (inactive) | CCN1CCN(Cc2ccc(Nc3ncc(F)c(-c4cc(F)c5nc(C)n(C(C)C)c5c4)n3)nc2)CC1 [ABEMACICLIB] |
|  | > 30 µM (inactive) | > 30 µM (inactive) | > 30 µM (inactive) | > 30 µM (inactive) | > 30 µM (inactive) |  |  | > 30 µM (inactive) | > 30 µM (inactive) | > 30 µM (inactive) | > 30 µM (inactive) | > 30 µM (inactive) | > 30 µM (inactive) | > 30 µM (inactive) | 0.057 µM (active) | COc1cccc2cc(-c3nc([C@H]4CC[C@H](C(=O)O)CC4)n4ncnc(N)c34)[nH]c12 [OSI-027] |
| > 30 µM (inactive) | > 30 µM (inactive) | > 30 µM (inactive) |  |  | > 30 µM (inactive) | > 30 µM (inactive) |  | > 30 µM (inactive) | > 30 µM (inactive) |  | > 30 µM (inactive) | > 30 µM (inactive) | 5.4 µM (active) | > 30 µM (inactive) | 1.15 µM (active) | COc1cc(Nc2ncc(F)c(Nc3ccc4c(n3)N(COP(=O)(O)O)C(=O)C(C)(C)O4)n2)cc(OC)c1OC [FOSTAMATINIB] |
| > 30 µM (inactive) | > 30 µM (inactive) | > 30 µM (inactive) | > 30 µM (inactive) |  | > 30 µM (inactive) | > 30 µM (inactive) | > 30 µM (inactive) | > 30 µM (inactive) |  |  | > 30 µM (inactive) | > 30 µM (inactive) | > 30 µM (inactive) | > 30 µM (inactive) | > 30 µM (inactive) | CNC(=O)c1cccc(-c2ccc3c(N4CCOC[C@@H]4C)nc(N4CCOC[C@@H]4C)nc3n2)c1 [VISTUSERTIB] |
| > 30 µM (inactive) | > 30 µM (inactive) | > 30 µM (inactive) | > 30 µM (inactive) | > 30 µM (inactive) | > 30 µM (inactive) |  | > 30 µM (inactive) | > 30 µM (inactive) | > 30 µM (inactive) |  | > 30 µM (inactive) | > 30 µM (inactive) | > 30 µM (inactive) | > 30 µM (inactive) | > 30 µM (inactive) | S=C(NCc1ccc2c(c1)OCO2)N1CCN(c2ncnc3c2oc2ccccc23)CC1 [AMUVATINIB] |
| > 30 µM (inactive) | > 30 µM (inactive) | > 30 µM (inactive) |  | > 30 µM (inactive) | > 30 µM (inactive) | > 30 µM (inactive) |  | > 30 µM (inactive) |  | > 30 µM (inactive) | > 30 µM (inactive) | > 30 µM (inactive) | > 30 µM (inactive) | > 30 µM (inactive) | > 30 µM (inactive) | COc1ccc(-c2ccc3ncc4c(c3c2)n(-c2ccc(N3CCNCC3)c(C(F)(F)F)c2)c(=O)n4C)cn1 [BGT-226 FREE BASE] |
| > 30 µM (inactive) | > 30 µM (inactive) |  |  | > 30 µM (inactive) | > 30 µM (inactive) | > 30 µM (inactive) | > 30 µM (inactive) | > 30 µM (inactive) | > 30 µM (inactive) | > 30 µM (inactive) | > 30 µM (inactive) | > 30 µM (inactive) | > 30 µM (inactive) | > 30 µM (inactive) | 0.388 µM (active) | O=C(Nc1ccc(OC(F)(F)F)cc1)c1sccc1NCc1ccnc2ccccc12 [OSI-930] |
| > 30 µM (inactive) | > 30 µM (inactive) | > 30 µM (inactive) | > 30 µM (inactive) | > 30 µM (inactive) | > 30 µM (inactive) | > 30 µM (inactive) | > 30 µM (inactive) | > 30 µM (inactive) |  |  | > 30 µM (inactive) | > 30 µM (inactive) | > 30 µM (inactive) | > 30 µM (inactive) | > 30 µM (inactive) | COc1ccc2c(OCc3nnc4ccc(-c5ccccc5)nn34)ccnc2c1 [AMG-208] |

| Compound | Kd [1] | Kd [2] | Kd [3] | Kd [4] | Kd [5] | Kd [6] | Kd [7] | Kd [8] | Kd [9] | Kd [10] | Kd [11] | Kd [12] | Kd [13] | Kd (Focal adhesion kinase 1) | Kd [14] | Kd [15] |
| --- | --- | --- | --- | --- | --- | --- | --- | --- | --- | --- | --- | --- | --- | --- | --- | --- |
| CC(C)CC(=O)Nc1[nH]nc2c1CN(C(=O)C1CCN(C)CC1)C2(C)C [PHA-793887] |  | > 30 µM (inactive) | > 30 µM (inactive) |  | > 30 µM (inactive) |  | > 30 µM (inactive) |  | > 30 µM (inactive) |  | > 30 µM (inactive) | 2.34 µM (active) | > 30 µM (inactive) |  |  |  |
| O=S(=O)(c1cccc2cnccc12)N1CCCNCC1 [FASUDIL] | > 30 µM (inactive) |  | > 30 µM (inactive) |  | > 30 µM (inactive) |  | > 30 µM (inactive) |  | > 30 µM (inactive) | > 30 µM (inactive) |  |  |  |  |  |  |
